In general, EC50 refers to the concentration needed to bring the measured effect to its halfway point. A word on the IC50: it is the concentration that gives 50% inhibition.

The values below come from PubChem BioAssay AID179 (DTP/NCI, 2004).

This assay has as its system CEM cells HIV-1 protection, formazan growth assay. Put plainly: NCI AIDS Antiviral Assay. To be noted: for IC50: measured here: growth of uninfected CEM cells. In a few lines:
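Soluble formazan readout of cell growth; CEM cells ± HIV-1; 5 drug concs. ≥50% protection → retest; ≥50% again = moderately active; reproducible 100% = confirmed active.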

Active and inactive are the calls of the source.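 The calls were made as follows: active = compounds giving half or more protection of infected cells from virus-caused growth loss, again on retest; inactive = the rest.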 Where a SMILES comes first, the peptide text is derived from it. The star is where a group is joined. ONp = O=[N+]([O-])c1ccc(O*)cc1; Cbz = O=C(OCc1ccccc1)*; OBn = c1ccc(CO*)cc1

Consider `O=C1C/C(=C\c2ccccc2)C(=O)c2ccccc2N1`, for which the EC50 was > 200 µM and the IC50 amounted to 12.6 µM. For `Cc1ccc(-c2cc(-c3ccco3)c(C#N)c(=O)n2C2OC(CO)C(O)C(O)C2O)cc1` (stereo unspecified), in that order: 25.7 µM and 81.3 µM.

With `COc1cccc2c1C(=O)c1c(O)c3c(c(O)c1C2=O)C[C@@](O)(C(=O)CO)C[C@@H]3OC1CC(N(C)C)C(O)C(C)O1` (stereo partly specified), the EC50 is > 0.2 µM and the IC50 turned out to be 0.0631 µM. For `CCOC(=O)C12OC(OCC)(CC1(OCC)OCC)C1(CC1)C2=O` (stereo unspecified), in that order: > 200 µM and > 200 µM. `O=C(O)c1cc(S(=O)(=O)Nc2cc(Cc3cc(NS(=O)(=O)c4ccc(O)c(C(=O)O)c4)c(O)c(C(=O)O)c3)cc(C(=O)O)c2O)ccc1O`: the EC50 is > 100 µM and the IC50 is > 100 µM. Regarding `CCN(CC)CC1CCCCN1CC(=O)N1CC(C)C(=O)Nc2ccccc21` (stereo unspecified), the EC50 was 34.7 µM and the IC50 amounted to 251 µM. For `O=C1CC(c2ccccc2)C(c2ccccc2)C1=O` (stereo unspecified), in that order: > 129 µM and 52.5 µM. The like results for `C/C=C(\C)C(=O)OC1CC(OC(C)=O)C2(C(=O)OC)COC3C2C1(C)C1C2(C(=O)OC)OCC1(C3O)C1(O)C3CC(C4(O)C=COC4O3)C1(C)O2` (stereo unspecified) were, in that order, > 200 µM and 174 µM. Regarding `COC1=CC2=C3[C@H](Cc4cc5c(c(c4)Oc4ccc(cc4)C[C@@H]4c6cc7c(cc6CCN4C)OC[C@]3(O7)C1=O)OCO5)N(C)CC2`, the result was inactive.

In the case of `O=C1OC2C=CC1C1(CCOC1=O)C2` (stereo unspecified), the EC50 is > 200 µM and the IC50 is > 200 µM. For the compound `COC(=O)CCC(C)C1CCC2[C@@H]3CC[C@@H]4CC(CSC(C)=O)CC[C@]4(C)C3CC[C@]12C` (stereo partly specified), the EC50 is > 29.5 µM and the IC50 is > 29.5 µM. On to `Cc1nccnc1N1CCCCC1`, for which the EC50 is > 200 µM and the concentration for half-maximal inhibition (IC50) is > 200 µM.

Consider `CCN(CC)c1ccc(/C=C2\CCc3ccc([N+](=O)[O-])cc3C2=O)cc1`, for which the EC50 was > 20 µM and the IC50 was 1.07 µM. For `Cc1c(CCO)c(=O)n2c([nH]c3ccccc32)c1C#N`, in that order: > 107 µM and 85.1 µM. With `CC1(C)CCc2cc3c(-c4ccccc4)cc(=O)oc3cc2O1`, the outcome was inactive. Turning to `COc1ccc(CCN(C)C(=O)CC(C#N)(c2ccccc2)c2ccc(OC)c(OC)c2)cc1OC` (stereo unspecified), the EC50 was > 200 µM and the IC50 was 95.5 µM.

Regarding `O=Cc1ccc(/C=C2\C=Cc3ccccc32)cc1`, the EC50 was > 58.9 µM and the IC50 is > 58.9 µM. As for `Cc1oc2nc(N(C)C)n3cnnc3c2c1C`, the outcome was inactive. On the same count and under the same terms, under `COC(=O)C1C=NNC1C(=O)OC` (stereo unspecified) stands “inactive”. Take `O=c1c2ccccc2n2c(=S)[nH]nc2n1-c1ccccc1`: the EC50 is > 200 µM and the IC50 is > 200 µM. `COc1cc2ccnc3c2c(c1OC)CC1CC(O)C(OC)CC31` (stereo unspecified): the result was inactive. With `CCCNC(=O)N(C)C(=O)N1N=C(c2ccccc2)C1c1ccccc1` (stereo unspecified), the EC50 was 4.57 µM and the IC50 worked out at 52.5 µM.

Consider `COC1CC(CC(C)O)CN(C#N)CCc2c1[nH]c1ccccc21` (stereo unspecified), for which the EC50 was > 79.4 µM and the IC50 is > 79.4 µM. Turning to `O=C1C2CN(Cc3ccccc3)CC1CN(Cc1ccccc1)C2`, the EC50 is > 214 µM and the 50% inhibitory concentration (IC50) stood at 141 µM. With `O=c1[nH]c(=O)n(C2CC(O)C(CO)O2)cc1C#Cc1cc(C(F)(F)F)cc(C(F)(F)F)c1` (stereo unspecified), the EC50 is > 40.7 µM and the IC50 was > 40.7 µM.

As to `Cc1ccc(NC(=O)CC(=O)N2N=C(N3CCCCC3)CC2c2ccccc2)cc1` (stereo unspecified), the EC50 was > 200 µM and the IC50 was > 200 µM. Consider `CCCCC(C)/C=C/C(=O)C1=C(O)/C(=C/C(=O)O)OC1=O` (stereo unspecified), for which the EC50 is 302 µM and the IC50 turned out to be 851 µM. For `CCC1(C)N=C(C(N)=O)c2ncn(N=C(C)C)c2N1` (stereo unspecified), in that order: > 200 µM and > 200 µM. For `CCOC(=O)c1cc(OC(=O)CC)c2c(OC)ccc(OC)c2c1`, the result was inactive. `O=C(O)Cn1c(=O)[nH]c(=O)c2c1ncn2Cc1ccccc1`: the EC50 is > 832 µM and the IC50 is > 832 µM. Consider `COc1ccc(C2CC(=O)c3c(cc(OC)c(O)c3OC)O2)cc1` (stereo unspecified), for which the EC50 is > 200 µM and the IC50 turned out to be 32.4 µM. In the case of `CCCCN(CCCC)C(=O)C(=O)C(C)C(=O)CC` (stereo unspecified), the result was inactive.

Regarding `CCOC(=O)CC/C(C)=N\n1c(Cc2ccc(Cl)cc2)n[nH]c1=O`, the result was inactive. Regarding `Cc1c(Cl)c(=O)oc2cc(OCC(O)COC(C)C)ccc12` (stereo unspecified), the result was inactive. As for `CCCN=C(NNC(N)=O)C(C)=O`, the EC50 is > 1350 µM and the IC50 is 1100 µM. For `Cc1c(C)c2c(c(N)c1C#N)C(=O)N(CCc1ccccc1)C2=O`, in that order: > 200 µM and 170 µM. With `N.N.NCCCCCN.O=C([O-])CC(=O)[O-].O=C([O-])CC(=O)[O-].[Pt+4].[Pt+4]`, the EC50 is > 2140 µM and the IC50 stood at 6.76 µM. Take `C/C=C(/CCC1NCCC2c3ccccc3NC12)[Si](C)(C)C` (stereo unspecified): the outcome was inactive. In the case of `O=C1C=C(Nc2ccc(Br)cc2)c2ccccc2C1=O`, the EC50 was > 4.37 µM and the IC50 was > 4.37 µM. For the compound `C[C@H]1N(O)CC2OC(n3ccc(=O)[nH]c3=O)C(O)C21O` (mixture of isomers), the EC50 was > 200 µM and the IC50 is > 200 µM. For the compound `Cc1ccc(NCCNCCO)c2c(=O)c3ccccc3sc12`, the result was inactive. The same measure, in the same setting: under `CC(=O)Nn1c(Cc2ccc(Cl)cc2)nn(C)c1=O` stands “inactive”. In the case of `O=c1[nH]c(NCCCCCO)nc2nc[nH]c12`, the EC50 is > 200 µM and the IC50 was > 200 µM. Consider `COC(=O)c1c[nH]cc1CCc1c[nH]cc1C(=O)OC`, for which the outcome was inactive. As to `O=C1C=C(C2=CC(=O)C(=O)c3ccccc32)c2ccccc2C1=O`, the EC50 was > 151 µM and the IC50 is 1.91 µM. For `N#CCCN(C(=O)Nc1ccc(NC(=O)N(CCC#N)c2ccccc2)cc1)c1ccccc1`, in that order: > 200 µM and > 200 µM. The like results for `COc1c(OP2(=S)OCC(C)(C)CO2)cnn(C2CCCCC2)c1=O` were, in that order, > 200 µM and 24.5 µM. For `O=C(CNC(=O)C(CCC(=O)OCc1ccccc1)NC(=O)OCc1ccccc1)NCC(=O)NC(CO)C(=O)NCC(=O)Oc1ccc([N+](=O)[O-])cc1` (stereo unspecified) (Cbz-E(OBn)GGSG-ONp; configuration not given here), in that order: > 91.2 µM and > 91.2 µM. For the compound `N#C[C@H](OC1OC(COC(=O)/C=C/c2ccc(O)c(O)c2)C(O)C(O)C1O)c1ccccc1` (stereo partly specified), the result was inactive. The same measure, in the same setting: as for `COc1ccc(C(=O)O)c(Cc2ccc3ccccc3c2)c1`, the entry is “inactive”.

In the case of `C=CC(C)(C)n1cc(C2=C3OC(=O)C(c4cn(C(C)(C)C=C)c5ccccc45)=C3OC2=O)c2ccccc21`, the EC50 is > 200 µM and the IC50 is > 200 µM. `CC#CC(=O)Nc1ccccc1CC(c1c[nH]c2ccccc12)c1c[nH]c2ccccc12`: the EC50 is > 35.5 µM and the IC50 came out at 19.1 µM. The like results for `CC1CC(Nc2ccc(Br)cc2)N(C(=O)c2ccc(Br)cc2)O1` (stereo unspecified) were, in that order, > 200 µM and 17 µM.
